Targets include EPHB1 (Homo sapiens, UniProt P54762); PHKG1 (Homo sapiens, UniProt Q16816); ERN1 (Homo sapiens, UniProt O75460); EGFR(L861Q) (Homo sapiens, UniProt P00533, L861Q); PRKCE (Homo sapiens, UniProt Q02156); PRKD1 (Homo sapiens, UniProt Q15139); FER (Homo sapiens, UniProt P16591); RIPK1 (Homo sapiens, UniProt Q13546); AKT1 (Homo sapiens, UniProt P31749); CSNK2A2 (Homo sapiens, UniProt P19784); GRK4 (Homo sapiens, UniProt P32298); NEK7 (Homo sapiens, UniProt Q8TDX7); DYRK2 (Homo sapiens, UniProt Q92630); FGFR4 (Homo sapiens, UniProt P22455).

Assay in all cases: biochemical
Design in all cases: KINOMEscan active-site competition binding, percent of control (100 = no competition)
Common to all, as to conditions: competition binding, percent control

The target in a further experiment is T1, SNARK (Homo sapiens, UniProt Q9H093).
T1 construct: gene NUAK2

Another experiment deals with T2, S6K1 (Homo sapiens, UniProt P23443).
T2 construct: gene RPS6KB1

The target in experiment [1] is T3, ABL1(T315I)-phosphorylated (Homo sapiens, UniProt P00519, T315I).
T3 construct: phosphorylated

A further experiment concerns the target T4, ABL1-nonphosphorylated (Homo sapiens, UniProt P00519).
T4 construct: nonphosphorylated

Another experiment deals with T5, ERK4 (Homo sapiens, UniProt P31152).
T5 construct: gene MAPK4

The target of experiment [2] is T6, ABL1(Q252H)-nonphosphorylated (Homo sapiens, UniProt P00519, Q252H).
T6 construct: nonphosphorylated

The target in experiment [3] is T7, JAK1(JH1domain-catalytic) (Homo sapiens, UniProt P23458).
T7 construct: JH1domain-catalytic

The next experiment addresses T8, ADCK4 (Homo sapiens, UniProt Q96D53).
T8 construct: gene COQ8B

The next experiment deals with T9, MLK3 (Homo sapiens, UniProt Q16584).
T9 construct: gene MAP3K11
T9 sequence (Q16584 whole entry): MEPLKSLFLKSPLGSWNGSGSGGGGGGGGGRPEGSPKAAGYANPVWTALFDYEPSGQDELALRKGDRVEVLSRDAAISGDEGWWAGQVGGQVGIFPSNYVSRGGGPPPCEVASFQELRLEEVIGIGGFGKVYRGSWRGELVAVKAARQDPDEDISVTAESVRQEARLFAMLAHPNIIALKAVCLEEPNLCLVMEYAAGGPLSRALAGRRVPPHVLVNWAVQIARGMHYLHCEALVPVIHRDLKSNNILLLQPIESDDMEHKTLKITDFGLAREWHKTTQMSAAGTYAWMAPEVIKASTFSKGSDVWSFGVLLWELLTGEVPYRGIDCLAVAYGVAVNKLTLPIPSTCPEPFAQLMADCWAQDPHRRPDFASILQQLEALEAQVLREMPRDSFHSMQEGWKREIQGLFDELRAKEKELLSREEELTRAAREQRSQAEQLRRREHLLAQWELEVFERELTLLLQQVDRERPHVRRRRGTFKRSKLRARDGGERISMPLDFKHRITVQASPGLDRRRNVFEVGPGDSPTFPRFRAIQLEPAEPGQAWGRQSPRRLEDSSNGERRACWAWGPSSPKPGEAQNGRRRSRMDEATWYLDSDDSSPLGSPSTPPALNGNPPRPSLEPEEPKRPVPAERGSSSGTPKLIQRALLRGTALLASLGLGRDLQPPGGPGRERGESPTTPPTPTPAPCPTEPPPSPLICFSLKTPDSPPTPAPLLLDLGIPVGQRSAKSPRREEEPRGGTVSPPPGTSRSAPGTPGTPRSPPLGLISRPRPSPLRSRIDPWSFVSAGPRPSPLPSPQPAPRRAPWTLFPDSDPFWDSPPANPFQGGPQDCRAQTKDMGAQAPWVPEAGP

ERN1, sequence (O75460 whole entry): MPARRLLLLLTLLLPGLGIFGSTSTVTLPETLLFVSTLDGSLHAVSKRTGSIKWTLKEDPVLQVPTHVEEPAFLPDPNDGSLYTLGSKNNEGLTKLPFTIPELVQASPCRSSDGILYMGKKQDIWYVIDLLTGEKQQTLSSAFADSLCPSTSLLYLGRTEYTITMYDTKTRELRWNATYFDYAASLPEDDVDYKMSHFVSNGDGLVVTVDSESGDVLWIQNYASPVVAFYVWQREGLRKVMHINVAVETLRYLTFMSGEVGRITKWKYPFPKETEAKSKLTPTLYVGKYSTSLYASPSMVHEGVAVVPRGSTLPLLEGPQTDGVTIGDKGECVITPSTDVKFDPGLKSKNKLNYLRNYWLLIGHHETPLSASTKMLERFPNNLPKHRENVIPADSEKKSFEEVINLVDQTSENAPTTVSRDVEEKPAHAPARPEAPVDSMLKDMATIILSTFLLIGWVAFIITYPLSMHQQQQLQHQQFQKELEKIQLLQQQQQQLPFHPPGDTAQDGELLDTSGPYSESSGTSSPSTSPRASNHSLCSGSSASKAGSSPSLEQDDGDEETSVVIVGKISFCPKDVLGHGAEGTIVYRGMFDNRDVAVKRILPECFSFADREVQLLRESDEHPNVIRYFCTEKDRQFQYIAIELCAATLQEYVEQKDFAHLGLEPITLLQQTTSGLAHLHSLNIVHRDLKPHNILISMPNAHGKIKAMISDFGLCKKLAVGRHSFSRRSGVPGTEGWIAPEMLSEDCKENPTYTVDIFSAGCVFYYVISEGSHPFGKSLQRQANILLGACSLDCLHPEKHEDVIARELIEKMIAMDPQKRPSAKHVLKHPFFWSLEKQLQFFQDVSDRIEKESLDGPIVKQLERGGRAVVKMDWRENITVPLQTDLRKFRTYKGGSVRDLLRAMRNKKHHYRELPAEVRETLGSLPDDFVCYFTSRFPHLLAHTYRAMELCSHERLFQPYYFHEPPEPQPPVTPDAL
T5 sequence (P31152 whole entry): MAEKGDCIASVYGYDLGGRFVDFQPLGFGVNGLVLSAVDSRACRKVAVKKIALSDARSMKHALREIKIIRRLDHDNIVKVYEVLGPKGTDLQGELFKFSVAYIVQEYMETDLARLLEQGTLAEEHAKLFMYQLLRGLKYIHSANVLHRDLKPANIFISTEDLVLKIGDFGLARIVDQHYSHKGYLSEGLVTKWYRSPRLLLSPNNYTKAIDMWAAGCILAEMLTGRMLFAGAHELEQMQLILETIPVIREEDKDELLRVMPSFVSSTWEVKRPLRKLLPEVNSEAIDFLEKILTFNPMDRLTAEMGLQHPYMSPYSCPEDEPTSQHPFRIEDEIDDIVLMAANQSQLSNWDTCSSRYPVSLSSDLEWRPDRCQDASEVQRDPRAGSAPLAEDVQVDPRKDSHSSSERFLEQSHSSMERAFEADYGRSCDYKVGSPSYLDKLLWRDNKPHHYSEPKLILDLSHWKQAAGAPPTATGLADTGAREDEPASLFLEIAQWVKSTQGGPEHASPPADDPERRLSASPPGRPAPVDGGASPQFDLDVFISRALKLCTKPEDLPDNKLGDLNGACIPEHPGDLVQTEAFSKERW
AKT1, sequence (P31749 whole entry): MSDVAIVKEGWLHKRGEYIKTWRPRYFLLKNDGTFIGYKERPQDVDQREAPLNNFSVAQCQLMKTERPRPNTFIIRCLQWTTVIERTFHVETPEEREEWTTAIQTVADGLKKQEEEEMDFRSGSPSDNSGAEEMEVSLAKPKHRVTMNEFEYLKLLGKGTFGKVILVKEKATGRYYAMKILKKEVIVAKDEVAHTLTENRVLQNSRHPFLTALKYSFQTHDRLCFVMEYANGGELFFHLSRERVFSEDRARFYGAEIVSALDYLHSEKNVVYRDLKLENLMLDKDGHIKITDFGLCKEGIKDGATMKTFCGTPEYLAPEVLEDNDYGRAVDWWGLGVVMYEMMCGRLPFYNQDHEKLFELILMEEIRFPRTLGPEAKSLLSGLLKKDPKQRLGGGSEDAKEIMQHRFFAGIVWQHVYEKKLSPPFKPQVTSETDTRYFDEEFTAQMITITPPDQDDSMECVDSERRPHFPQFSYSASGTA
PHKG1, sequence (Q16816 whole entry): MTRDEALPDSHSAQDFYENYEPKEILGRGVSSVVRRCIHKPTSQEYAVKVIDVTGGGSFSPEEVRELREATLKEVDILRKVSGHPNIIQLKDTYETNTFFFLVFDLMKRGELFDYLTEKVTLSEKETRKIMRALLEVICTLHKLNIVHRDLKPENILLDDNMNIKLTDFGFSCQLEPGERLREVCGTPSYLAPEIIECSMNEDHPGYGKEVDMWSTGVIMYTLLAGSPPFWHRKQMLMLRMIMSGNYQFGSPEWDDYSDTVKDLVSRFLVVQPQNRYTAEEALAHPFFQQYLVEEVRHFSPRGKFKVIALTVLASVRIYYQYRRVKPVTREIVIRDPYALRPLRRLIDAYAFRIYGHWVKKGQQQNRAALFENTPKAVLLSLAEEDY
T7 sequence (P23458 whole entry): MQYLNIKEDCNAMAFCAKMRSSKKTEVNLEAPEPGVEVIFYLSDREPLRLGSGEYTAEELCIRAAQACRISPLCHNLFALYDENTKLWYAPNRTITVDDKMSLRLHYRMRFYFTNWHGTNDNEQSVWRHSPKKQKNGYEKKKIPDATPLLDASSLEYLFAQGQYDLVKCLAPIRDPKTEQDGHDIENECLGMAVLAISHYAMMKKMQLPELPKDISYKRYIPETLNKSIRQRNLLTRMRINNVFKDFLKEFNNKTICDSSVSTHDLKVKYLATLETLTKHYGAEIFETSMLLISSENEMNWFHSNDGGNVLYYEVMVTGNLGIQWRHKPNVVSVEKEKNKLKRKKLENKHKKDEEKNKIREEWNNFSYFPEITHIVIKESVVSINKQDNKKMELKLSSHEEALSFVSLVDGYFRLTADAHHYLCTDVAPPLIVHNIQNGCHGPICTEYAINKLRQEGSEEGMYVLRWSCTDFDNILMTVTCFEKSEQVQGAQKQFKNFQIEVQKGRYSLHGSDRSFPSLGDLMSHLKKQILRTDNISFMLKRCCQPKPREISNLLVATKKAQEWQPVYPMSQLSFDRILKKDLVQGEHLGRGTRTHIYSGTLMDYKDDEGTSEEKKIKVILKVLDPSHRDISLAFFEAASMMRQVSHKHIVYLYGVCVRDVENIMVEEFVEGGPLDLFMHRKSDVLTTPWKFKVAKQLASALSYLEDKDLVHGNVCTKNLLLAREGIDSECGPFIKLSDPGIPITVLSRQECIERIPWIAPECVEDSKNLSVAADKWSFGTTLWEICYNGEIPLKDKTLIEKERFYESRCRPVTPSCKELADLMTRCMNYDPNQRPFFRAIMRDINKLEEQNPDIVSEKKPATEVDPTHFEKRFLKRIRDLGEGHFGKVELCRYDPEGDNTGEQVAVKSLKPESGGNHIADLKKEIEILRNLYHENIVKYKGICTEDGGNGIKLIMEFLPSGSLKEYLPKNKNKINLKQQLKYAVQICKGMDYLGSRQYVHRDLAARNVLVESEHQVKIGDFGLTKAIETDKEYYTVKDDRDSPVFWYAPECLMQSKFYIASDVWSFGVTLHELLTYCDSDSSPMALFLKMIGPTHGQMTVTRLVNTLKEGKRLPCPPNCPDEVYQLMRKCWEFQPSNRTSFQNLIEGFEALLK
T2 sequence (P23443 whole entry): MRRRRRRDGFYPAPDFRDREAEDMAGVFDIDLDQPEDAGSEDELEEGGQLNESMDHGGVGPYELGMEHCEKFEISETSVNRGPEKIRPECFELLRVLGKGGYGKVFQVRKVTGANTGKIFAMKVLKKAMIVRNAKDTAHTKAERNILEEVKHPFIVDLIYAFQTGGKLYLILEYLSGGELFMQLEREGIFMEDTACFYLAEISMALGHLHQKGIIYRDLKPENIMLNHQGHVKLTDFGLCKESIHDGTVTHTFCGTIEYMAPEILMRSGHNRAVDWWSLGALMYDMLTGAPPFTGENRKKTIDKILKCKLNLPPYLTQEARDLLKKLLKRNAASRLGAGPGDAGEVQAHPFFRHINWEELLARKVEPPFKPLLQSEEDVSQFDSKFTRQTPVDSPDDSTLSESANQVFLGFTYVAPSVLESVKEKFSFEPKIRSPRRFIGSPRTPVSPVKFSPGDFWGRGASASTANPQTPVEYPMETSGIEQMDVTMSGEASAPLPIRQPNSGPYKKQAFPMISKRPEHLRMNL

`COc1ccc(-c2cnccc2-c2cnc(NC(=O)C(C)C)s2)c(C(F)(F)F)c1` [CRT0105446, N-{5-[3-(4-Methoxy-2-trifluoromethyl-phenyl)-pyridin-4-yl]-hiazol-2-yl}-isobutyramide]: the remaining binding at 10 µM on EPHB1 stood at 88%; at PHKG1, 78%; at SNARK, 84%; on ERN1, 87%; on EGFR(L861Q), 100%; on S6K1, 78%. The remaining binding at 10 µM turned out to be 72% at PRKCE; 99% in experiment [1]; 88% on PRKD1; 82% at ABL1-nonphosphorylated; 100% on FER; 90% on RIPK1. Besides, the remaining binding at 10 µM at ERK4 came out at 100%; at AKT1, 100%; on CSNK2A2, 91%; in experiment [2], 83%; in experiment [3] it was 89%; at GRK4, 100%. Further, the remaining binding at 10 µM is 100% at NEK7; 85% on ADCK4; 100% on MLK3; 81% on DYRK2; 90% at FGFR4.

Take `Cc1ccc(-c2cnccc2-c2cnc(Nc3ccc(O)cc3)s2)c(Cl)c1` [CRT0105950, 4-{5-[3-(2-Chloro-4-methyl-phenyl)-pyridin-4-yl]-thiazol-2-ylamino}-phenol]: the remaining binding at 10 µM on EPHB1 stood at 80%; on PHKG1 it was 56%; at SNARK it was 31%; on ERN1 it was 68%; at EGFR(L861Q), 65%; at S6K1, 41%. The remaining binding at 10 µM is 55% at PRKCE; 79% in [1]; 18% on PRKD1; 43% on ABL1-nonphosphorylated; 57% at FER; 17% at RIPK1. The remaining binding at 10 µM on ERK4 was 86%; at AKT1, 100%; at CSNK2A2, 58%; in experiment [2], 70%; in experiment [3], 53%; on GRK4, 89%. For the same compound, the remaining binding at 10 µM on NEK7 came out at 100%; at ADCK4 it was 58%; at MLK3 it was 43%; on DYRK2, 79%; at FGFR4, 29%.

The values above are taken from paper PMC4770715, “LIM kinase inhibitors disrupt mitotic microtubule organization and impair tumor cell proliferation” (Oncotarget, 2015).
